Active and inactive are the calls of the source. No cut-off for these calls is given here.

The species entered for experiment [1] is Danio rerio. Description: Anti-osteoporosis activity in FAC-induced skeletal injury Zebrafish assessed as increase in cumulative bone optical density in spine at 0.1 % measured for 10 day post fertilization. It counts as functional, organism-based.
Experiment [2] has as its system Osteoblast. The experiment in a line: Induction of osteoblast differentiation in transgenic osx mCherry Zebrafish embryo assessed as increase in Col10a1a mRNA expression in fin at 0.1 % measured after 15 days by semiquantitative PCR analysis. Type of experiment: functional. The settings on record: Danio rerio, time 15.0 day.
Experiment [3] deals with Osteoblast. The experiment in a line: Induction of osteoblast differentiation in transgenic osx mCherry Zebrafish embryo assessed as increase in Col1a2 mRNA expression in fin at 0.1 % measured after 15 days by semiquantitative PCR analysis. It counts as functional, tissue-based. To be noted: Danio rerio, time 15.0 day.
In experiment [4] the test system is Osteoblast. Description: Induction of osteoblast differentiation in transgenic osx mCherry Zebrafish embryo assessed as increase in Sox9a mRNA expression in fin at 0.1 % measured after 15 days by semiquantitative PCR analysis. Type of experiment: functional, tissue-based. The settings on record: Danio rerio, time 15.0 day.
Experiment [5] concerns Osteoblast. The experiment in a line: Induction of osteoblast differentiation in transgenic osx mCherry Zebrafish embryo assessed as increase in Sox9b mRNA expression in fin at 0.1 % measured after 15 days by semiquantitative PCR analysis. It counts as functional, tissue-based. The settings on record: Danio rerio, time 15.0 day.
The species entered for experiment [6] is Danio rerio. The experiment in a line: Anti-osteoporosis activity in FAC-induced skeletal injury Zebrafish assessed as increase in cumulative bone optical density in caudal fins at 0.1 % measured for 10 day post fertilization. It counts as functional, organism-based.
The species named for experiment [7] is Danio rerio. Description: Suppression of Bmp signaling in Zebrafish tBr injected mRNA embryos assessed as reduction in slight loss of tail tissue at 2.5 uM measured at 26 hrs post fertilization. Type of experiment: functional, Embryo. On the set-up: scale not given: the % may be the effect or the level left.
Experiment [8] is filed under the species Danio rerio. Description: Suppression of Bmp signaling in Zebrafish tBr injected mRNA embryos assessed as reduction in indistinctive tail tissue at 2.5 uM measured at 26 hrs post fertilization. On the set-up: scale not given: the % may be the effect or the level left. It counts as functional, Embryo.

Regarding `NCCCC(O)(P(=O)(O)O)P(=O)(O)O`, the outcome in the experiment listed under Danio rerio [1], in the experiment with Osteoblast [2], in the experiment with Osteoblast [3], in the experiment with Osteoblast [4], in the experiment with Osteoblast [5] and in the experiment listed under Danio rerio [6] was Active.

`c1cc(-c2cnn3cc(-c4ccc(OCCN5CCCCC5)cc4)cnc23)ccn1` [DORSOMORPHIN]: the Activity in the experiment listed under Danio rerio [7] and in the experiment filed under Danio rerio [8] was 80% throughout.
